Measurements as given in patent publication US20230167155A1, “COMPOSITIONS AND METHODS” (KING'S COLLEGE LONDON, priority 2020, published 2023).
“Also recorded” adds a separate entry of the source. Where no end group is shown, it is not given here. The star is where a group is joined. Myristoyl = CCCCCCCCCCCCCC(=O)*

Tests used:
[1] = Aristolochic acid nephropathy (AAN) model of renal fibrosis; assay type: in vivo; settings: vs equimolar PTL060 or pure PAR-1 antagonist
[2] = test system: C57BL/6 mice; experiment: Delayed type hypersensitivity, contact sensitivity to oxazolone (ear swelling); assay type: in vivo, mouse
Experimental: C57BL/6 mice were topically sensitised with oxazolone on the shaved abdomen on day 0. Treatment with either saline, PTL060 (10 mg/g), equimolar PTL0GC-1 or equimolar *3-MP was given on day 3 and day 5, the last immediately prior to re-challenge with oxazolone onto the right ear. The left ear was treated with vehicle alone. On day 6, the difference in swelling of the right and left ears was measured and is presented as D mean ear thickness.
This example uses a model of contact hypersensitivity. Here, mice are challenged on the abdomen with the contact sensitizer oxazolone, before a re-challenge […] on both sides of the ear with oxazolone (on the right) or vehicle alone (on the left).
Swelling of the ears, measured with a micrometer, reflects the influx of monocytes/macrophages and T cells in a typical delayed-type hypersensitivity (DTH) response.
FIG. 19: Model of DTH involving contact sensitivity to oxazolone. WT mice were administered a PAR-1 agonist or antagonist at the point of second exposure to oxazolone, before ear thickness was assessed 24 hours later, and mice sacrificed for immunohistological analysis of cross sections of the affected ears, to determine the proportional area occupied by CD68+ cells (macrophages). *p<0.05. **p<0.01. ***p<0.001

[3] = test system: ApoE−/− mice; experiment: Regression of established atheroma, weekly IV injections (Oil Red O en face, aortic root); assay type: in vivo, mouse; set-up: regression of atherosclerosis compared to PTL060 and untailed 3-MP: dose or concentration left out as unconfirmed
Experimental: For all atherosclerosis work, male ApoE−/− mice, from the age of 6-weeks, were fed with a high fat diet (HFD) consisting 35 kcal % fat, 1.25% cholesterol, and 0.5% cholic acid (Special Diet Services, Essex UK). Aortas were transplanted 2 weeks after starting the HFD, using a sleeve anastomosis technique described previously^11. Briefly, a 5 mm of the segment of the infrarenal donor aorta, flushed with 300 μl of saline containing 50 U of heparin, was transplanted into ApoE−/− recipient abdomen aortas (N=6 per group). Blood flow was confirmed by direct inspection after removal of the clamps. Mice were fed a HFD for 6-12 weeks post-transplantation before the experiment was terminated (Suppl FIG. 1A). To assess prevention of atheroma, mice (n=6 per group) received a single injection of PTL060 or controls by tail vein, and the experiments terminated 1-3 weeks later (Suppl FIG. 1B). For regression experiments, baseline groups (n=6) were fed a HFD to the age of 22 weeks before the mice were sacrificed. Experimental or control groups (n=3-6 per group) received weekly injections by tail vein for 3-6 weeks, beginning at age of 22 weeks before the experiments were terminated when mice were 25-28 weeks old (Suppl FIG. 1C).
Atherosclerotic lesions were evaluated as previously described^11. Simply, the entire length of the aorta was perfused with PBS, dissected using a dissecting microscope, longitudinally opened and stained with Oil Red O (ORO) solution (Sigma, UK) for 30 minutes, before being photographed with a digital camera (DSC-W320, Sony, Japan). The total aortic area and lesional area were measured by using Image J. Aortas from every animal were assessed. To assess lesions in the aortic sinus, hearts were embedded in paraffin, sectioned through the aortic root and incubated with elastin/van Gieson stain using the Accustain™ Elastin Stain kit (Sigma). Sections were examined on an Olympus U-ULH optical microscope (Olympus Optical Co. Ltd, Tokyo, Japan). Atheromatous lesional and total aortic root area was determined using Image-Pro Plus TM software version 4.0 (Media Cybernetics, Silver Spring, USA). At least three random sections were examined from each mouse in all groups.

[4] = test system: C57BL/6 mice; experiment: Ischaemia reperfusion injury, acute kidney injury; assay type: in vivo, mouse; settings: 2 doses 7.5 mg/ml
Experimental: In more detail, Model 3: Ischaemia reperfusion injury: PTL0GC-1 induces quicker recovery, associated with reduced fibrosis, post acute kidney injury. Both kidneys of C57BL/6 mice were exposed under recovery anaesthesia, and both renal arteries completely occluded by clamps for 30 minutes, prior to release. 2 doses of PTL0GC-1 (7.5 mg/ml) or saline were administered to the mice immediately prior to clamping, and immediately prior to clamp release. Mice were allowed to recover and then monitored for 3 weeks, prior to euthanasia.

[5] = test system: ApoE−/− mice; experiment: Regression by weekly adoptive transfer of CD11b+ cells / monocytes pre-incubated with compound; assay type: in vivo, mouse; settings: HFD 16 weeks, weekly IV 6 weeks; monocytes pre-treated 30 minutes, PTL060 100 microM or PTL0GC-1 25 microM
Experimental: In more detail, mechanistic insights: direct effect on monocyte/macrophage phenotype. ApoE−/− mice were fed a high fat diet for 16 weeks (baseline), prior to weekly IV treatment for 6 weeks with monocytes from BL6 mice, pre-treated for 30 minutes with either PTL060 (100 microM) or PTL0GC-1 (actually used at ¼ concentration-25 microM).
Extent of atherosclerosis was explored by en face examination of the surface area of aorta containing plaques using Oil-Red-O
Leukocytes were isolated from the blood of mice aged 8-10 weeks, using anti-CD11b MicroBeads (Miltenyi Biotec Ltd, Surrey, UK) according to manufacturers' instructions. For cell labelling, 2×10^7 CD11b+ cells were incubated with 4×10^−6 M of either PKH26 or PKH2 fluorescent dyes (Sigma, UK) for 5 minutes at 25° C. according to manufacturers' protocols, with the reaction stopped using 1% BSA in PBS followed by three washes. Each recipient mouse received 0.5×10^6 cells by IV injection; in some experiments, the cells were incubated with PTL060 (100 μM in 0.5 mls) or equimolar controls for 30 minutes at room temperature and washed three times before immediate injection. For viability assays, murine bone marrow cells were incubated for 5 days in 6 well plates, counted and re-seeded at 2×10^5 cells/ml in 24 well plates with 25 ng/ml MCSF. […]

[Myr2]-KSSKSPSKKDDKKPGDK(CO—CH2-S—CH2-CH2-Phe-Cha-Cha-Arg-Lys-Pro-Asn-Asp-Lys-NH2)NH2 (K(Myristoyl)SSKSPSKKDDKKPGDK-NH2; not fully specified (residue 17, N-terminus); also: branched: thioether-linked Phe-Cha-Cha-Arg-Lys-Pro-Asn-Asp-Lys-NH2 on Lys17 side chain) [PTL0GC-1]
development of renal fibrosis, being confirmed [1]: inhibits development of renal fibrosis
DTH response, IP and SC administration ([2]; intraperitoneal or subcutaneous, day 3 and day 5): efficacy of both IP and SC administration; also recorded: can inhibit the DTH response
difference in ear swelling (D mean ear thickness) ([2]; intravenously, day 3 and day 5, equimolar to PTL060 (10 mg/g), vs PTL060 and 3-MP): biggest effect
macrophage infiltration into the skin ([2]; model of DTH): reduced macrophage infiltration into the skin
regression of atherosclerosis, being confirmed ([3]; ApoE−/− mice, vs equimolar PTL060 or pure PAR-1 antagonist): causes significant regression of atherosclerosis
regression of atherosclerosis compared to PTL060 and untailed 3-MP ([3]; HFD 16 weeks, weekly IV for 6 weeks, equimolar to PTL060): Superior regression
impact on the AKI ([4]; prior to clamping and prior to clamp release, renal arteries clamped 30 minutes): no impact on the AKI
kidney fibrosis, histological analysis ([4]; 3 weeks): trend towards less fibrosis
renal function ([4]; by 3 weeks): better renal function by 3 weeks
body weight during recovery phase ([4]; monitored 3 weeks): gain weight quicker
regression after transfer of pre-treated monocytes [5]: the same degree of regression associated with IV treatment of the same reagents; also recorded: superior regression
